Results as given in ChEMBL document CHEMBL4052765, “Synthesis and antibacterial evaluation of novel 11-O-carbamoyl clarithromycin ketolides” (2017).
≈ marks a conversion by molar mass, not a printed value.

Experiments:
Format in all cases: functional
Streptococcus pyogenes [1] = experiment: Antibacterial activity against erythromycin-resistant Streptococcus pyogenes R1 after 24 h by NCCLS broth microdilution method; settings: R1, 24 h
Pseudomonas aeruginosa = experiment: Antibacterial activity against penicillin-susceptible Pseudomonas aeruginosa ATCC 27853 after 24 h by NCCLS broth microdilution method; settings: ATCC 27853, 24 h
Bacillus subtilis = experiment: Antibacterial activity against penicillin-susceptible Bacillus subtilis ATCC 9372 after 24 h by NCCLS broth microdilution method; settings: ATCC 9372, 24 h
Staphylococcus aureus [2] = experiment: Antibacterial activity against […] Staphylococcus aureus ATCC 29213 after 24 h by NCCLS broth microdilution method; settings: ATCC 29213, 24 h
Staphylococcus aureus [3] = experiment: Antibacterial activity against erythromycin-susceptible Staphylococcus aureus ATCC 25923 after 24 h by NCCLS broth microdilution method; settings: ATCC 25923, 24 h
Streptococcus pneumoniae [4] = experiment: Antibacterial activity against erythromycin-resistant Streptococcus pneumoniae AB11 harboring harboring mef and erm gene after 24 h by NCCLS broth microdilution method; settings: AB11, 24 h
Streptococcus pneumoniae [5] = experiment: Antibacterial activity against erythromycin-resistant Streptococcus pneumoniae A22072 harboring mef gene after 24 h by NCCLS broth microdilution method; settings: A22072, 24 h
Streptococcus pyogenes [6] = experiment: Antibacterial activity against erythromycin-susceptible Streptococcus pyogenes after 24 h by NCCLS broth microdilution method
Escherichia coli = experiment: Antibacterial activity against penicillin-susceptible Escherichia coli ATCC 25922 after 24 h by NCCLS broth microdilution method; settings: ATCC 25922, 24 h
Streptococcus pneumoniae [7] = experiment: Antibacterial activity against erythromycin-resistant Streptococcus pneumoniae B1 harboring erm gene after 24 h by NCCLS broth microdilution method; settings: B1, 24 h

SMILES | MIC (Streptococcus pyogenes [1]) | MIC (Pseudomonas aeruginosa) | MIC (Bacillus subtilis) | MIC (Staphylococcus aureus [2]) | MIC (Staphylococcus aureus [3]) | MIC (Streptococcus pneumoniae [4]) | MIC (Streptococcus pneumoniae [5]) | MIC (Streptococcus pyogenes [6]) | MIC (Escherichia coli) | MIC (Streptococcus pneumoniae [7])
CC[C@H]1OC(=O)[C@H](C)C(=O)[C@H](C)[C@@H](O[C@@H]2O[C@H](C)C[C@H](N(C)C)[C@H]2O)[C@](C)(OC)C[C@@H](C)C(=O)[C@H](C)[C@@H](OC(=O)NCCNC(=O)/C=C/c2ccc(O)cc2)[C@]1(C)O | > 128 µg/mL | 128 µg/mL (≈ 156 µM) | 8 µg/mL (≈ 9.76 µM) | 32 µg/mL (≈ 39 µM) | 32 µg/mL (≈ 39 µM) | 128 µg/mL (≈ 156 µM) | 4 µg/mL (≈ 4.88 µM) | 4 µg/mL (≈ 4.88 µM) | > 128 µg/mL | 128 µg/mL (≈ 156 µM)
CC[C@H]1OC(=O)[C@H](C)C(=O)[C@H](C)[C@@H](O[C@@H]2O[C@H](C)C[C@H](N(C)C)[C@H]2O)[C@](C)(OC)C[C@@H](C)C(=O)[C@H](C)[C@@H](OC(=O)NCCNC(=O)/C=C/c2ccc(F)cc2)[C@]1(C)O | > 128 µg/mL | > 128 µg/mL | 8 µg/mL (≈ 9.73 µM) | 128 µg/mL (≈ 156 µM) | 32 µg/mL (≈ 38.9 µM) | 64 µg/mL (≈ 77.9 µM) | 4 µg/mL (≈ 4.87 µM) | 2 µg/mL (≈ 2.43 µM) | > 128 µg/mL | 128 µg/mL (≈ 156 µM)
CC[C@H]1OC(=O)[C@H](C)C(=O)[C@H](C)[C@@H](O[C@@H]2O[C@H](C)C[C@H](N(C)C)[C@H]2O)[C@](C)(OC)C[C@@H](C)C(=O)[C@H](C)[C@@H](OC(=O)NCCNC(=O)/C=C/c2ccc(Br)cc2)[C@]1(C)O | > 128 µg/mL | > 128 µg/mL | 4 µg/mL (≈ 4.53 µM) | 64 µg/mL (≈ 72.5 µM) | 32 µg/mL (≈ 36.2 µM) | 128 µg/mL (≈ 145 µM) | 2 µg/mL (≈ 2.27 µM) | 2 µg/mL (≈ 2.27 µM) | > 128 µg/mL | 128 µg/mL (≈ 145 µM)
CC[C@H]1OC(=O)[C@H](C)C(=O)[C@H](C)[C@@H](O[C@@H]2O[C@H](C)C[C@H](N(C)C)[C@H]2O)[C@](C)(OC)C[C@@H](C)C(=O)[C@H](C)[C@@H](OC(=O)NCCNC(=O)c2ccc(C(C)(C)C)cc2)[C@]1(C)O | 128 µg/mL (≈ 153 µM) | > 128 µg/mL | 4 µg/mL (≈ 4.8 µM) | 128 µg/mL (≈ 153 µM) | 128 µg/mL (≈ 153 µM) | 128 µg/mL (≈ 153 µM) | 4 µg/mL (≈ 4.8 µM) | 16 µg/mL (≈ 19.2 µM) | > 128 µg/mL | 128 µg/mL (≈ 153 µM)
CC[C@H]1OC(=O)[C@H](C)C(=O)[C@H](C)[C@@H](O[C@@H]2O[C@H](C)C[C@H](N(C)C)[C@H]2O)[C@](C)(OC)C[C@@H](C)C(=O)[C@H](C)[C@@H](OC(=O)NCCNC(=O)/C=C/c2ccc([N+](=O)[O-])cc2)[C@]1(C)O | > 128 µg/mL | 128 µg/mL (≈ 151 µM) | 4 µg/mL (≈ 4.71 µM) | 128 µg/mL (≈ 151 µM) | 32 µg/mL (≈ 37.7 µM) | 128 µg/mL (≈ 151 µM) | 1 µg/mL (≈ 1.18 µM) | 1 µg/mL (≈ 1.18 µM) | > 128 µg/mL | 128 µg/mL (≈ 151 µM)
CC[C@H]1OC(=O)[C@H](C)C(=O)[C@H](C)[C@@H](O[C@@H]2O[C@H](C)C[C@H](N(C)C)[C@H]2O)[C@](C)(OC)C[C@@H](C)C(=O)[C@H](C)[C@@H](OC(=O)NCCNC(=O)/C=C/c2ccccc2)[C@]1(C)O | > 128 µg/mL | > 128 µg/mL | 8 µg/mL (≈ 9.95 µM) | 128 µg/mL (≈ 159 µM) | 32 µg/mL (≈ 39.8 µM) | 64 µg/mL (≈ 79.6 µM) | 4 µg/mL (≈ 4.98 µM) | 4 µg/mL (≈ 4.98 µM) | > 128 µg/mL | 128 µg/mL (≈ 159 µM)
CC[C@H]1OC(=O)[C@H](C)C(=O)[C@H](C)[C@@H](O[C@@H]2O[C@H](C)C[C@H](N(C)C)[C@H]2O)[C@](C)(OC)C[C@@H](C)C(=O)[C@H](C)[C@@H](OC(=O)NCCNC(=O)/C=C/c2ccc(Cl)cc2Cl)[C@]1(C)O | 64 µg/mL (≈ 73.3 µM) | > 128 µg/mL | 2 µg/mL (≈ 2.29 µM) | 32 µg/mL (≈ 36.7 µM) | 8 µg/mL (≈ 9.17 µM) | 128 µg/mL (≈ 147 µM) | 2 µg/mL (≈ 2.29 µM) | 2 µg/mL (≈ 2.29 µM) | 128 µg/mL (≈ 147 µM) | 128 µg/mL (≈ 147 µM)
CC[C@H]1OC(=O)[C@H](C)C(=O)[C@H](C)[C@@H](O[C@@H]2O[C@H](C)C[C@H](N(C)C)[C@H]2O)[C@](C)(OC)C[C@@H](C)C(=O)[C@H](C)[C@@H](OC(=O)NCCNC(=O)c2ccc(OC)cc2)[C@]1(C)O | > 128 µg/mL | > 128 µg/mL | 4 µg/mL (≈ 4.95 µM) | 128 µg/mL (≈ 158 µM) | 32 µg/mL (≈ 39.6 µM) | 64 µg/mL (≈ 79.2 µM) | 1 µg/mL (≈ 1.24 µM) | 2 µg/mL (≈ 2.48 µM) | > 128 µg/mL | 128 µg/mL (≈ 158 µM)
CC[C@H]1OC(=O)[C@H](C)C(=O)[C@H](C)[C@@H](O[C@@H]2O[C@H](C)C[C@H](N(C)C)[C@H]2O)[C@](C)(OC)C[C@@H](C)C(=O)[C@H](C)[C@@H](OC(=O)NCCNC(=O)c2cccc(C)c2)[C@]1(C)O | > 128 µg/mL | > 128 µg/mL | 8 µg/mL (≈ 10.1 µM) | 128 µg/mL (≈ 162 µM) | 32 µg/mL (≈ 40.4 µM) | 64 µg/mL (≈ 80.8 µM) | 8 µg/mL (≈ 10.1 µM) | 4 µg/mL (≈ 5.05 µM) | > 128 µg/mL | 128 µg/mL (≈ 162 µM)
